In patent US8975259B2, “Compositions and methods for inhibiting G protein signaling” (University of Rochester, priority 2007, dated 2015):
Entries after “also recorded” stand apart in the source; their conditions may differ. Values belong to the molecule of their own block, whether it stands above or below them.

Assays:
[1] = test system: primary human neutrophils; assay: fMLP-induced chemotaxis of primary human neutrophils (Boyden chamber); assay type: cell-based; details: 250 nM fMLP; for effect on fMLP-induced chemotaxis: 10 μM compound or 1 μM wortmannin, result in words
Experimental: (§1) Differentiated HL60 cells (200 k) were pretreated with 10 μM concentrations of the indicated compound, challenged with 250 nM fMLP, and assayed for chemotaxis in a Boyden chamber for 1 h at 37° C. […] Chemotaxis was quantified as above by subtracting out background cells (0-10 cells) in the absence of chemoattractant to obtain total transmigrated cells (−100 cells GM-CSF+vehicle) and represented as the percentage of GM-CSF-treated control cells. No statistically significant difference from control was seen by ANOVA. […] Primary human neutrophils were isolated from whole blood to ≧80% purity. Neutrophils (2×10^5) were pretreated with gallein (10 μM), M119 (10 μM), M119B (10 μM), or wortmannin (wtmn.) (1 μM) and then challenged with 250 nM fMLP or 10 nM IL-8 to evaluate chemotaxis in a Boyden chamber for 1 h at 37° C. […] NS, not statistically different from control. […] Primary human neutrophils were isolated and treated (250 nM fMLP±gallein) as described above. Chemotaxis was quantified as above by subtracting out background cells to obtain total transmigrated cells and represented as the percentage of fMLP-treated control cells. Data shown are pooled from two independent experiments, each in duplicate, ±S.E.M.
Chemotaxis was assayed using a Boyden chamber (Neuro Probe, Gaithersburg, Md.) using 3-μm polyvinylpyrrolidone-free polycarbonate filters (Neuro Probe). HL60 cells (differentiated for 4 days) were washed with and resuspended in HBSS containing 1% bovine serum albumin to a final concentration of 1×10^6 cells/ml. Primary human neutrophils were washed and resuspended in NaCl buffer (140 mM NaCl, 4 mM KCl, 10 mM D-glucose, 10 mM HEPES, pH 7.4, 1 mM MgCl2, and 1 mM CaCl2) to a final concentration of 1×10^6 cells/mi. Chemoattractant [1 μM granulocyte-macrophage-colony stimulating factor (GM-CSF), 10 nM IL-8, or 250 nM fMLP; Sigma Aldrich] was added to the bottom chamber in HBSS containing 1% bovine serum albumin. Cell suspensions (0.2×10^6 cells/well) were added to the top wells of the Boyden chamber and allowed to migrate for 1 h at 37° C. When applicable, cell suspensions were preincubated for […] with small-molecule inhibitors (in DMSO) at the indicated concentrations, and the bottom chamber was adjusted to the same concentration of small molecule. All treatments contained the same final concentration of DMSO. […] Chemotactic HL60 cells were scored by counting three microscope fields and subtracting the number of cells from fMLP wells as background. […] For all the small molecules, effects of the compounds on chemokinesis was analyzed by measuring chemotaxis in the presence of 250 nM fMLP in both the upper and lower chambers of the Boyden Chamber and measuring changes in transwell migration. […]

[2] = test system: differentiated HL60 cells; assay: fMLP-induced chemotaxis of differentiated HL60 cells (Boyden chamber); assay type: cell-based, human; details: 10 μM compound, 250 nM fMLP; result in words
Experimental: Same as A with purified human neutrophils.
as §1
Chemotaxis was assayed using a Boyden chamber (Neuro Probe, Gaithersburg, Md.) using 3-μm polyvinylpyrrolidone-free polycarbonate filters (Neuro Probe). HL60 cells (differentiated for 4 days) were washed with and resuspended in HBSS containing 1% bovine serum albumin to a final concentration of 1×10^6 cells/ml. Primary human neutrophils were washed and resuspended in NaCl buffer (140 mM NaCl, 4 mM KCl, 10 mM D-glucose, 10 mM HEPES, pH 7.4, 1 mM MgCl2, and 1 mM CaCl2) to a final concentration of 1×10^6 cells/mi. Chemoattractant [1 μM granulocyte-macrophage-colony stimulating factor (GM-CSF), 10 nM IL-8, or 250 nM fMLP; Sigma Aldrich] was added to the bottom chamber in HBSS containing 1% bovine serum albumin.

[3] = test system: Rac1 activation in differentiated HL60 cells; assay: fMLP-induced Rac1 activation in differentiated HL60 cells; assay type: cell-based, human; details: 10 μM compound, 1 μM fMLP; result in words
Experimental: Differentiated HL60 cells stably expressing GFP-PH-Akt were challenged with 250 nM fMLP in the presence and absence of 10 μM concentrations of the indicated compounds. Translocation of GFP-PH-Akt to the plasma membrane was evaluated by Western blot. Quantification shown below. ***, P<0.001 analysis of variance (ANOVA) is statistically different from control (PBS+vehicle). […] Differentiated HL60 cells were challenged with 1 μM fMLP in the presence and absence of 10 μM concentrations of the indicated compounds. Rac1 activation was assessed by Western blots of affinity-precipitated GTP-Rac1 from HL60 cell lysates. Western blot shown is representative of three independent experiments and quantitation contains data pooled from three independent experiments±S.E.M. *P<0.05 ANOVA is statistically different from control (DMSO only). n=3. […] Differentiated HL60 cells were challenged with 250 nM fMLP or 250 nM PMA in the presence and absence of 10 μM compounds or 100 nM Wortmannin (Wtmn). NADPH oxidase activity was determined after reaction with NBT by absorbance at 540 nm. Data shown is contains data pooled from three independent experiments (each in duplicate)±S.E.M. *, P<0.05 ANOVA is statistically different from control (DMSO only).
HL60 cells (differentiated for 4 days) were washed with and resuspended in NaCl buffer to a final concentration of 20×10^6 cells/ml. Cells (10×10^6/reaction) were pretreated with 10 μMGβγ inhibitor (in DMSO) for 10 min before challenge with 1 μM fMLP for 90 s in a 37° C. water bath and then immediately transferred to an ice-water bath. Cells were recovered by centrifugation at 500 g and washed two times with ice-cold Tris-buffered saline, pH 7.4. […] Chemiluminescence was analyzed using a charge-coupled device camera in a UVP Epi-Chem II Darkroom imaging system. Results were expressed as percent fMLP-stimulated GTP Rac1 normalized to total Rac1 with the background subtracted.

IC50 ([1]; Homo sapiens, Neutrophil, read-out: IC50 for block of fMLP-dependent chemotaxis): ~5 µM
Compound: O=C(O)c1ccccc1-c1c2ccc(=O)c(O)c-2oc2c(O)c(O)ccc12 (racemic) [Gallein]
effect on fMLP-induced chemotaxis [1]: significantly inhibited
effect on fMLP-induced chemotaxis [2]: inhibited
effect on fMLP-induced Rac1 activation [3]: inhibited

Compound: O=C(O)C1CCCCC1c1c2ccc(=O)c(O)c-2oc2c(O)c(O)ccc12 (stereo not shown) [Compound M119, cyclohexanecarboxylic acid, 2-(4,5,6-trihydroxy-3-oxo-3H-xanthen-9-yl)-(9cl)]
effect on fMLP-induced chemotaxis [1]: significantly inhibited
effect on fMLP-induced chemotaxis [2]: significantly blunted migration; also recorded: inhibited
effect on fMLP-induced Rac1 activation [3]: inhibited

Compound: O=C(O)C1CCCCC1c1c2ccc(=O)cc-2oc2cc(O)ccc12 (stereo not shown) [Compound M119B]
effect on fMLP-induced chemotaxis [1]: no affect
effect on fMLP-induced chemotaxis [2]: no effect on migration
effect on fMLP-induced Rac1 activation [3]: little effect
